# Columns and labels:
# [1] = target: T1, recombinant active human PAI-1 (Homo sapiens (Human), UniProt P05121); test: Fluorometric PAI-1/uPA IC50 plate assay at pH 7.8; type: biochemical; conditions: physiologic buffer
# Protocol: To determine the efficacy of various synthesized compounds as PAI-1 inhibitors at pH 7.8, additional fluorometric plate assays were carried out to measure the half maximal inhibitory concentration (IC50) of these compounds on recombinant active human PAI-1 in vitro.
# PAI-1 inhibitor compounds were dissolved in DMSO to a final concentration of (10-50 mM), depending upon solubility. […] Fluorescence, as a measure of the rate of AMC release by uPA, was read at the following wavelengths; excitation 370 nm, emission 440 nm. Controls included PAI-1 and uPA in the absence of compound and uPA alone. Percent PAI-1 inhibition was calculated using the following formula: [(uPA alone-uPA/PAI-1+ compound)/(uPA alone-PAI-1/uPA)]*100%. The IC50 was calculated using Graphit (IC50 0-100%).
# [2] = target: T1, recombinant active human PAI-1; test: Fluorometric PAI-1/uPA IC50 plate assay at pH 7.4; type: biochemical
# Protocol: To determine the efficacy of various synthesized compounds as PAI-1 inhibitors, a fluorometric plate assay was carried out to measure the half maximal inhibitory concentration (IC50) of these compounds on recombinant active human PAI-1 in vitro. An IC50 is a measure of the effectiveness of a compound in inhibiting biological or biochemical function. Stated another way, IC50 represents the concentration of a drug that is required for 50% inhibition in vitro.
# PAI-1 inhibitor compounds were dissolved in DMSO to a final concentration of (10-50 mM), depending upon solubility. Compounds were then diluted in physiologic buffer (40 mM HEPES, 100 mM NaCl, 0.05% Tween-20, pH7.4) containing 10% DMSO and a dilution series (from 0 to 1000 uM depending on solubility) was prepared. 80 μL of compound was added per well to a 96-well black, opaque microplate in duplicate. 10 μL of 20 nM Recombinant active human PAI-1 (Molecular Innovations) in physiologic buffer (40 mM HEPES, 100 mM NaCl, 0.05% Tween-20, 10% DMSO, pH 7.4), or […] physiologic buffer with 10% human plasma, was added and the mixture was agitated for 15 minutes at room temperature. 10 μL of 25 nM uPA (Rheotromb®) was added to each reaction well and the plate was agitated for an additional 30 minutes at room temperature. Tripeptide aminomethylcoumarin Gly-Gly-Arg-AMC (Calbiochem) fluorogenic substrate (100 μL of 100 μM) was then added and residual uPA activity was determined based upon cleavage of this substrate. The rate of AMC release by uPA (fluorescence) was measured at an excitation wavelength of 370 nm and an emission wavelength of 440 nm. Controls included PAI-1 and uPA in the absence of compound and uPA alone. Percent PAI-1 inhibition was calculated using the following formula: [(uPA alone-uPA/PAI-1+ compound)/(uPA alone-PAI-1/uPA)]*100%. The IC50 was calculated using Graphit (IC50 0-100%).
# [3] = physiologic buffer (40 mM HEPES, 100 mM NaCl, 0.05% Tween-20, 10% DMSO), read-out: PAI-1/uPA IC50 in buffer
# [4] = physiologic buffer with 1.5% BSA (15 mg/mL), read-out: PAI-1/uPA IC50 in 1.5% BSA buffer
# [5] = physiologic buffer with 10% human plasma, read-out: PAI-1/uPA IC50 in 10% plasma buffer
# T1 sequence (P05121 24-402): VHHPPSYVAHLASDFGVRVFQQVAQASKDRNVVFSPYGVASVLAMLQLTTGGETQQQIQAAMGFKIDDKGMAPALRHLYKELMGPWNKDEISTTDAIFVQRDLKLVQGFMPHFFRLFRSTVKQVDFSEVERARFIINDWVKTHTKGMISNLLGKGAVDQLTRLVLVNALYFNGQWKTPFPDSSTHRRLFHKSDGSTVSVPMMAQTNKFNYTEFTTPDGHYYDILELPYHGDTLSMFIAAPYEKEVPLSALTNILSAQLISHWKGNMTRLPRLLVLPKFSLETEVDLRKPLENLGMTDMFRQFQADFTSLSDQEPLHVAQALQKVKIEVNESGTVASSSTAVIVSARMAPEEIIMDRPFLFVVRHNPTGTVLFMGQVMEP
IC50 [1] [µM],Compound,also measured
17.1,O=C1S/C(=C\c2ccc(O)c(O)c2)C(=O)N1Cc1ccc(Br)cc1 [C203],–
0.035,O=C(OCC(CNS(=O)(=O)c1cccc(C(F)(F)F)c1)OC(=O)c1ccc(O)c(O)c1)c1ccc(O)c(O)c1 (centres unmarked) [C204],–
5.05,O=S(=O)(c1ccc(O)c(O)c1)N1CCc2ccccc21 [C205],–
4.96,"O=C1S/C(=C\c2ccc(O)c(O)c2)C(=O)N1Cc1cccc(Br)c1 [C206, (Z)-3-(3-bromobenzyl)-5-(3,4-dihydroxybenzylidene)thiazolidine-2,4-dione]",–
16.8,"O=C1S/C(=C\c2ccc(O)c(O)c2)C(=O)N1Cc1cccc(-c2ccc(OC(F)(F)F)cc2)c1 [C207, (Z)-5-(3,4-dihydroxybenzylidene)-3-((4′-(trifluoromethoxy)-[1,1′-biphenyl]-3-yl)methyl)thiazolidine-2,4-dione]",–
77.2,CC(C)(C)n1nc(-c2ccccc2)nc1Cc1ccc(O)c(O)c1 [C208],–
190,O=S(=O)(NCCc1ccc(O)c(O)c1)c1ccccc1 [C210],–
116,CCCCCc1nc(Cc2ccc(O)c(O)c2)n(C(C)(C)C)n1 [C220],–
1610,CC(C)(C)n1nc(C2CC2)nc1Cc1ccc(O)c(O)c1 [C221],–
236,CC(C)(C)n1nc(-c2ccc(O)cc2)nc1Cc1ccc(O)c(O)c1 [C222],–
125,CCCCCc1nc(Cc2ccc(O)c(O)c2)n(C(C)(C)C)n1 [C223],–
4.34,CCCCCCCCN(S(=O)(=O)c1ccc(O)cc1)S(=O)(=O)c1ccc(O)c(O)c1 [C224],–
13.3,O=S(=O)(NCCCc1ccccc1)c1ccc(O)c(O)c1 [C232],–
74.8,O=S(=O)(NCCc1ccccc1)c1ccc(O)c(O)c1 [C233],–
174,O=C(OCCOC(=O)c1ccc(O)c(O)c1)c1cc(O)cc(O)c1 [C236],–
663,O=C(O)CCCCNS(=O)(=O)c1ccc(O)c(O)c1 [C249],–
29.5,NC(=O)[C@H](Cc1ccccc1)NS(=O)(=O)c1ccc(O)c(O)c1 [C270],–
1.82,O=C(O)CCCCCNS(=O)(=O)c1ccc(O)c(O)c1 [C271],–
16.4,O=C(O)[C@H](Cc1ccccc1)NS(=O)(=O)c1ccc(O)c(O)c1 [C272],–
55.6,O=C(O)[C@@H](NS(=O)(=O)c1ccc(O)c(O)c1)c1ccccc1 [C273],–
73.6,O=C(O)[C@H](NS(=O)(=O)c1ccc(O)c(O)c1)c1ccccc1 [C274],–
30.5,O=C(O)[C@@H](Cc1ccccc1)NS(=O)(=O)c1ccc(O)c(O)c1 [C275],–
4.94,CCCCCCCCN(S(=O)(=O)c1cccc(O)c1)S(=O)(=O)c1ccc(O)c(O)c1 [C292],"IC50 [2, 3]: 68 µM"
77.6,CCCCCCCCN(S(=O)(=O)c1cccc(O)c1)S(=O)(=O)c1cccc(O)c1 [C293],"IC50 [2, 3]: 123 µM"
120,CCCCCCCCN(S(=O)(=O)c1ccc(O)cc1)S(=O)(=O)c1cccc(O)c1 [C294],"IC50 [2, 3]: 234 µM"
13.6,O=S(=O)(NCc1ccc(Cl)c(C(F)(F)F)c1)c1ccc(O)c(O)c1 [C303],"IC50 [2, 3]: 12.6 µM"
423,"O=C(CCc1ccc(O)c(O)c1)NCc1ccc(Cl)c(C(F)(F)F)c1 [C330, N-(4-chloro-3-(trifluoromethyl)benzyl)-3-(3,4-dihydroxyphenyl)propanamide]","IC50 [2, 3]: 365 µM; IC50 [2, 4]: 112 µM; IC50 [2, 5]: 115 µM"

# More lines, now with the values behind:
Compound,IC50 [1] [µM],also measured
CCCCCCCCCCN(CCN(CCCCCCCCCC)S(=O)(=O)c1ccc(O)c(O)c1)S(=O)(=O)c1ccc(O)c(O)c1 [C168],1.98,–
CCCCCCCCN(CCCCCCCC)S(=O)(=O)c1ccc(O)c(O)c1 [C170],5.49,–
CCCCCCN(CCCCCC)S(=O)(=O)c1ccc(O)c(O)c1 [C171],1.67,–
CCCCCCCCN(Cc1cc(Cl)c(O)c(Cl)c1)S(=O)(=O)c1ccc(O)c(O)c1 [C172],1.98,–
CCCCCCCCN(S(=O)(=O)c1ccc(-c2ccc(OC(F)(F)F)cc2)cc1)S(=O)(=O)c1ccc(O)c(O)c1 [C173],19.2,–
CCCCCCCCN(CC(O)c1ccccc1)S(=O)(=O)c1ccc(O)c(O)c1 (centres unmarked) [C175],6.74,–
CCCCCCCCN(CCN(CCCCCCCC)S(=O)(=O)c1ccc(O)c(O)c1)S(=O)(=O)c1ccc(O)c(O)c1 [C176],0.62,–
CCCCCCCCN(Cc1cccc(Cl)c1)S(=O)(=O)c1ccc(O)c(O)c1 [C177],5.11,–
CCCCCCCCN(Cc1cccc(C(F)(F)F)c1)S(=O)(=O)c1ccc(O)c(O)c1 [C179],2.4,–
CCCCCCCCN(CCCCCC)S(=O)(=O)c1ccc(O)c(O)c1 [C180],1.34,–
CCCCCCCN(S(=O)(=O)c1ccc(O)c(O)c1)S(=O)(=O)c1ccc(O)c(O)c1 [C182],0.033,–
CCCCCCCCCN(S(=O)(=O)c1ccc(O)c(O)c1)S(=O)(=O)c1ccc(O)c(O)c1 [C183],0.18,–
CCCCCCCN(CCN(CCCCCCC)S(=O)(=O)c1ccc(O)c(O)c1)S(=O)(=O)c1ccc(O)c(O)c1 [C184],0.59,–
CCCCCCCCCN(CCN(CCCCCCCCC)S(=O)(=O)c1ccc(O)c(O)c1)S(=O)(=O)c1ccc(O)c(O)c1 [C185],0.42,–
O=S(=O)(c1ccc(O)c(O)c1)N1CCC[C@H]1CCc1ccccc1 [C186],6.98,–
CCCCCCc1ccc(NS(=O)(=O)c2ccc(O)c(O)c2)cc1 [C187],0.91,–

Compound,IC50 [1] [µM],also measured
CCCCCCc1ccc(N(S(=O)(=O)c2ccc(O)c(O)c2)S(=O)(=O)c2ccc(O)c(O)c2)cc1 [C188],0.12,–
CCCCCCc1ccc(N(S(=O)(=O)c2ccc(CCC)cc2)S(=O)(=O)c2ccc(O)c(O)c2)cc1 [C189],2.29,–
O=S(=O)(Nc1ccc(-c2cccc(F)c2)cc1)c1ccc(O)c(O)c1 [C190],9.7,–
CCCCCCCCN(S(=O)(=O)c1ccc(CCCCC)cc1)S(=O)(=O)c1ccc(O)c(O)c1 [C191],1.28,–
O=C(Nc1ccccc1)[C@@H]1CCCN1S(=O)(=O)c1ccc(O)c(O)c1 [C193],552,–
CCCCCCCCCCCCc1ccc(N(S(=O)(=O)c2ccc(O)c(O)c2)S(=O)(=O)c2ccc(O)c(O)c2)cc1 [C195],0.92,–
CCCCCCCCCCN(CCN(C)S(=O)(=O)c1ccc(O)c(O)c1)S(=O)(=O)c1ccc(O)c(O)c1 [C196],0.45,–
O=S(=O)(c1ccccc1)N(CCc1ccc(O)c(O)c1)S(=O)(=O)c1ccc(O)c(O)c1 [C197],0.173,–
O=S(=O)(NCCc1ccc(O)c(O)c1)c1ccc(O)c(O)c1 [C198],0.051,–
O=C1S/C(=C\c2ccc(O)c(O)c2)C(=O)N1Cc1ccccc1 [C199],5.36,–
CCCCN(C)C(=O)CSc1ccc(O)c(O)c1 [C200],58.4,–
"CC(C)(C)n1nc(-c2ccccc2)nc1-c1ccc(O)c(O)c1 [C201, 4-(1-(tert-butyl)-3-phenyl-1H-1,2,4-triazol-5-yl)benzene-1,2-diol]",181,–
O=C(NCc1ccc(Cl)cc1)c1ccc(O)c(O)c1 [C361],–,"IC50 [2, 3]: 232 µM; IC50 [2, 4]: 2000 µM; IC50 [2, 5]: 851 µM"
Cc1ccc(CNC(=O)C(=O)NN)cc1 [C362],–,"IC50 [2, 3]: 533 µM; IC50 [2, 4]: 353 µM; IC50 [2, 5]: 229 µM"
O=C(NCc1ccc(C(F)(F)F)cc1)c1ccc(O)c(O)c1 [C363],–,"IC50 [2, 3]: 199 µM; IC50 [2, 4]: 751 µM; IC50 [2, 5]: 309 µM"
O=C(NCc1cccc(C(F)(F)F)c1)c1ccc(O)c(O)c1 [C364],–,"IC50 [2, 3]: 475 µM; IC50 [2, 4]: 898 µM; IC50 [2, 5]: 533 µM"

# Source: patent US9718760B2, “Plasminogen activator inhibitor-1 inhibitors and methods of use thereof” (THE REGENTS OF THE UNIVERSITY OF MICHIGAN, priority 2012, dated 2017)
